The values that follow come from patent US4333952A, “Growth promotors for ruminants” (Beecham Group Limited, priority 1979, dated 1982).

For the test, the system named is rumen fluid. The experiment in a line: in vitro incubation of buffered rumen fluid (methane inhibition, propionate enhancement, headspace gases and volatile fatty acids). Type of test: cell-based, sheep. The following applies: for inhibition at 2 ppm / activation at 2 ppm / inhibition at 10 ppm / activation at 10 ppm / inhibition at 3 ppm / activation at 3 ppm / inhibition at 5 ppm / activation at 5 ppm: Ovis aries. As to the method:
The compounds were tested for their ability to reduce or inhibit methane production and to enhance propionate formation. The method used is as follows:
The screening system is in vitro incubation of buffered rumen fluid with, or without, the addition of the test compound.
Rumen fluid is removed by suction from two rumenfistulated sheep, just before feeding. The fluid is strained and mixed. The incubation is for twenty hours in a shaking water-bath at 39° C. Each incubation flask contains: 30 ml McDougall's bicarbonate buffer, pH 6.7-6.9, 10 ml strained rumen fluid, 200 mg substrate (the substrate is a ground sample of the diet on which the sheep has been fed) and 1 ml 10% aqueous ethanol containing 0.2% Tween 80 and the compound under examination. Samples are taken at the end of the incubation period for analysis of headspace gases and volatile fatty acids, by g.l.c.
The compounds were tested at 10 ppm/flask, except for the compounds of Examples 9 and 10 which were tested at 5 ppm/flask.
Selected compounds were also tested according to the above protocol at doses of 2 and 3 ppm, the results being given in Table 2 below.
The compound of Example 1 was further tested in an in vitro a dose response study, according to the protocol above, at the doses shown in Table 3 below.

Where [1] appears, read: 20 h, read-out: VFA production % change from control, Acetate.
[2] abbreviates: 20 h, read-out: VFA production % change from control, Butyrate.
The mark [3] stands for this setting: 20 h, read-out: VFA production % change from control, Propionate.
The mark [4] stands for this setting: 20 h, read-out: VFA production % change from control, TVFA.
The mark [5] stands for this setting: 20 h, read-out: VFA production % difference from control, Acetate.
The mark [6] stands for this setting: 20 h, read-out: VFA production % difference from control, Butyrate.
Where [7] appears, read: 20 h, read-out: VFA production % difference from control, Propionate.
Setting [8] is: 20 h, read-out: VFA production % difference from control, TVFA.
Where [9] appears, read: 10 ppm/flask, 20 h, 39° C., read-out: % inhibition of methane.
Setting [10] is: Table 2, 2 ppm, read-out: % inhibition of methane.
Where [11] appears, read: Table 2, 3 ppm, read-out: % inhibition of methane.
[12] abbreviates: 5 ppm/flask (Examples 9 and 10), 20 h, 39° C.

Where two headings read alike, the source gives them in different places.

Turning to `CN(CC(O)C(Cl)(Cl)Cl)c1ccccc1` (centres unmarked) [Example 5, 1,1,1-Trichloro-3-N-methylanilinopropan-2-ol], for the setting “10 ppm/flask, 20 h, 39° C.”, the “% hydrogen present” value is given as 1.9%. For the same compound, where the note is “10 ppm/flask, 20 h, 39° C.”, the “Molar % VFA Acetate” value is listed as 59.1 Molar %. Moreover, the “Molar % VFA Butyrate” value (10 ppm/flask, 20 h, 39° C.) worked out at 14.0 Molar %. Further, the “Molar % VFA Propionate” value (10 ppm/flask, 20 h, 39° C.) stood at 24.0 Molar %. Also, the TVFA (10 ppm/flask, 20 h, 39° C.) worked out at 57.5 μM/ml. Further, the inhibition at 2 ppm reads like this: under setting [1], 4.3%; under setting [4], 3.1%; under setting [10], 4.2%. The activation at 2 ppm reads like this: under setting [2], 0.8%; under setting [3], 0.8%. Moreover, the inhibition at 10 ppm runs as follows: under setting [5], 36.3%; under setting [8], 16.1%; under setting [9], 92.7%. The activation at 10 ppm under setting [6] was found to be 23.9% and the activation at 10 ppm under setting [7] came to 54.6%. Where the note is “Table 2, 2 ppm”, the “% hydrogen in headspace gases” value was determined as 0.02%.

Take `OC(CN(CC(O)C(Cl)(Cl)Cl)c1ccccc1)C(Cl)(Cl)Cl` (centres unmarked) [Example 7, N,N-Di (3,3,3-Trichloro-2-hydroxypropyl)aniline]: where the note is “10 ppm/flask, 20 h, 39° C.”, the “% hydrogen present” value is reported as 2.17%, the “Molar % VFA Acetate” value is reported as 61.9 Molar %, the “Molar % VFA Butyrate” value is 9.72 Molar % and the “Molar % VFA Propionate” value came to 24.8 Molar %. In addition, the TVFA (10 ppm/flask, 20 h, 39° C.) came to 56.2 μM/ml. In addition, the inhibition at 10 ppm under setting [9] was 87.9%. For the same compound, under “10 ppm/flask, 20 h, 39° C., read-out: VFA production % difference from control, Acetate”, the inhibition at 10 ppm stood at 40.8%. The activation at 10 ppm (10 ppm/flask, 20 h, 39° C., read-out: VFA production % difference from control, Butyrate) came to 18.9%. The activation at 10 ppm (10 ppm/flask, 20 h, 39° C., read-out: VFA production % difference from control, Propionate) is 39%. The inhibition at 10 ppm (10 ppm/flask, 20 h, 39° C., read-out: VFA production % difference from control, TVFA) is 24.7%.

For `OC(COc1ccc(Cl)cc1)C(Cl)(Cl)Cl` (centres unmarked) [Example 2, 1,1,1-Trichloro-3-p-chlorophenoxypropan-2-ol], the “% hydrogen present” value (10 ppm/flask, 20 h, 39° C.) is 2.49%. The “Molar % VFA Acetate” value (10 ppm/flask, 20 h, 39° C.) amounted to 58.5 Molar %. Moreover, the “Molar % VFA Butyrate” value (10 ppm/flask, 20 h, 39° C.) is reported as 14.1 Molar %. For the setting “10 ppm/flask, 20 h, 39° C.”, the “Molar % VFA Propionate” value is 24.1 Molar %. For the same compound, where the note is “10 ppm/flask, 20 h, 39° C.”, the TVFA was found to be 56.9 μM/ml. In addition, the inhibition at 2 ppm stood at 22.6% under setting [1], 11.5% under setting [4] and 33.3% under setting [10]. Besides, the inhibition at 3 ppm runs as follows: under setting [1], 39%; under setting [4], 22.7%; under setting [11], 54.5%. For the same compound, the activation at 2 ppm was found to be 2% under setting [2] and 25.2% under setting [3]. In addition, the activation at 3 ppm is, setting by setting: under setting [2], 10.2%; under setting [3], 28.4%. Further, the inhibition at 10 ppm by setting is: under setting [5], 38.5%; under setting [8], 17.5%; under setting [9], 98.5%. Moreover, the activation at 10 ppm turned out to be 22.7% under setting [6] and 53.2% under setting [7]. Besides, the “% hydrogen in headspace gases” value by setting is: (Table 2, 2 ppm) 0.09%; (Table 2, 3 ppm) 0.8%.

Turning to `COc1cccc(NCC(O)C(Cl)(Cl)Cl)c1` (centres unmarked) [Example 6, 1,1,1-Trichloro-3-(m-methoxy)anilinopropan-2-ol], the “% hydrogen present” value (10 ppm/flask, 20 h, 39° C.) turned out to be 2.59%. In addition, the “Molar % VFA Acetate” value (10 ppm/flask, 20 h, 39° C.) is 63.2 Molar %. The “Molar % VFA Butyrate” value (10 ppm/flask, 20 h, 39° C.) is recorded as 8.50 Molar %. Moreover, the “Molar % VFA Propionate” value (10 ppm/flask, 20 h, 39° C.) was determined as 24.9 Molar %. Moreover, for the setting “10 ppm/flask, 20 h, 39° C.”, the TVFA is recorded as 55.4 μM/ml. The inhibition at 2 ppm amounted to 9.3% under setting [1], 4.5% under setting [4] and 11.5% under setting [10]. The inhibition at 3 ppm runs as follows: under setting [1], 41.8%; under setting [4], 21.5%; under setting [11], 77.8%. The activation at 2 ppm runs as follows: under setting [2], 15.3%; under setting [3], 12.6%. The activation at 3 ppm by setting is: under setting [2], 15.2%; under setting [3], 41.7%. The inhibition at 10 ppm was determined as 40.4% under setting [5], 25.3% under setting [8] and 97.5% under setting [9]. Moreover, the activation at 10 ppm reads like this: under setting [6], -6.6%; under setting [7], 36.8%. Also, the “% hydrogen in headspace gases” value is 0.03% (Table 2, 2 ppm) and 1.09% (Table 2, 3 ppm).

As for `OC(CC(O)C(Cl)(Cl)Cl)c1ccc(Cl)cc1` (centres unmarked) [Example 9, 1-p-Chlorophenyl-1,3-dihydroxy-4,4,4-trichlorobutane], under setting [12], the “% hydrogen present” value was 0.64%, the “Molar % VFA Acetate” value was found to be 59.9 Molar %, the “Molar % VFA Butyrate” value was 10.7 Molar % and the “Molar % VFA Propionate” value turned out to be 26.4 Molar %. In addition, under setting [12], the TVFA is 47.7 μM/ml. Under setting [5], the inhibition at 5 ppm was 38.5%. In addition, the activation at 5 ppm under setting [6] came out at 59.7%. Further, under setting [7], the activation at 5 ppm amounted to 53.2%. In addition, the inhibition at 5 ppm under setting [8] came out at 15.5%. Further, the inhibition at 5 ppm (5 ppm/flask (Examples 9 and 10), 20 h, 39° C., read-out: % inhibition of methane) was 50.7%.

For the compound `O=C(CC(O)C(Cl)(Cl)Cl)c1ccc(Cl)cc1` (centres unmarked) [Example 8, 1-p-Chlorophenacyl-2-hydroxy-3-trichloropropane], where the note is “10 ppm/flask, 20 h, 39° C.”, the “% hydrogen present” value is given as 0.05%, the “Molar % VFA Acetate” value turned out to be 63.5 Molar %, the “Molar % VFA Butyrate” value was found to be 9.8 Molar % and the “Molar % VFA Propionate” value came out at 23.7 Molar %. The TVFA (10 ppm/flask, 20 h, 39° C.) was determined as 50.5 μM/ml. In addition, the inhibition at 10 ppm under setting [5] was 23.1%. The activation at 10 ppm under setting [6] turned out to be 50.7%. The activation at 10 ppm under setting [7] stood at 42.4%. Besides, the inhibition at 10 ppm under setting [8] was 6.5%. In addition, the inhibition at 10 ppm under setting [9] came out at 34.1%.

`OC(COc1ccccc1Br)C(Cl)(Cl)Cl` (centres unmarked) [Example 3, 1,1,1-Trichloro-3-o-bromophenoxypropan-2-ol]: the “% hydrogen present” value (10 ppm/flask, 20 h, 39° C.) amounted to 2.30%. Moreover, the “Molar % VFA Acetate” value (10 ppm/flask, 20 h, 39° C.) was 59.1 Molar %. Moreover, under “10 ppm/flask, 20 h, 39° C.”, the “Molar % VFA Butyrate” value came to 14.2 Molar %. For the setting “10 ppm/flask, 20 h, 39° C.”, the “Molar % VFA Propionate” value was 24.1 Molar %. For the same compound, the TVFA (10 ppm/flask, 20 h, 39° C.) came to 57.2 μM/ml. Moreover, the inhibition at 2 ppm under setting [1] is 9.1%, the inhibition at 2 ppm under setting [4] is 4.5% and the inhibition at 2 ppm under setting [10] amounted to 17.8%. Moreover, the inhibition at 3 ppm turned out to be 35.5% under setting [1], 15.6% under setting [4] and 54.7% under setting [11]. The activation at 2 ppm under setting [2] is 3.4% and the activation at 2 ppm under setting [3] is 11.1%. The activation at 3 ppm under setting [2] is 26.8% and the activation at 3 ppm under setting [3] came out at 43.1%. In addition, the inhibition at 10 ppm came out at 36.8% under setting [5], 16.7% under setting [8] and 97.8% under setting [9]. For the same compound, the activation at 10 ppm was found to be 25% under setting [6] and 54.3% under setting [7]. Besides, the “% hydrogen in headspace gases” value reads like this: (Table 2, 2 ppm) 0.02%; (Table 2, 3 ppm) 0.66%.

For the compound `CN1CCN(CC(O)C(Cl)(Cl)Cl)CC1` (centres unmarked) [Compound A, reference compound], under “10 ppm/flask, 20 h, 39° C.”, the “% hydrogen present” value stood at 0.062%, the “Molar % VFA Acetate” value stood at 65.3 Molar %, the “Molar % VFA Butyrate” value is given as 9.13 Molar % and the “Molar % VFA Propionate” value was determined as 21.9 Molar %. Also, where the note is “10 ppm/flask, 20 h, 39° C.”, the TVFA came to 56.7 μM/ml. The inhibition at 10 ppm under setting [5] is 35%. The activation at 10 ppm under setting [6] turned out to be 9%. In addition, the activation at 10 ppm under setting [7] stood at 19.9%. In addition, the inhibition at 10 ppm under setting [8] was determined as 22.6%. Moreover, the inhibition at 10 ppm under setting [9] turned out to be 50.6%.
